Source: the supplement of paper PMC11451515

Tests used:
Conditions in all cases: 48 h
NOMO1 [1] = assay: cell viability relative to DMSO control; higher = less cytotoxic
Summary of the method: (§1)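 NOMO1, SEM and P12-Ichikawa leukemia cells spent at least four passages adapting to each medium before use. They were seeded at 500 cells/well (NOMO1, SEM) or 1000 cells/well (P12-Ichikawa) in 5 μl in 1536-well plates and pin-dosed with library compounds in DMSO at 11 threefold steps from 47 μM down to 0.79 nM. After 48 h at 37°C, CellTiter-Glo One luminescence was read. Viability is reported as a percentage of the DMSO wells on each plate, with cell-free wells as background.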

P12-Ichikawa [2] = assay: as above
Summary of the method: as §1

SEM cells [3] = assay: as above
Summary of the method: as §1

NOMO1 [4] = assay: AUC of viability dose-response curve (% viability x log10 dose units); higher = less sensitive
Summary of the method: (§2)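 Library compounds in DMSO were applied for 48 h at 37°C at 11 threefold doses (47 μM to 0.79 nM) to medium-adapted leukemia cells in 1536-well plates holding 500 or 1000 cells/well. Luminescence from CellTiter-Glo One was normalised plate by plate against DMSO and cell-free wells. Area under the curve came from trapezoidal integration of a log-logistic fit, after scaling curves that rose above full viability and discarding those that failed quality control. The fit had four parameters and used log10 doses.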

P12-Ichikawa [5] = assay: as above
Summary of the method: as §2

SEM cells [6] = assay: as above
Summary of the method: as §2

CCC1=C(C)CN(C(=O)NCCc2ccc(S(=O)(=O)NC(=O)N[C@H]3CC[C@H](C)CC3)cc2)C1=O
cell viability [%]
Conditions | NOMO1 [1] | P12-Ichikawa [2] | SEM cells [3]
HPLM + 10% dialyzed FBS, 0.000781 µM | 97.4 | 94.6 | 78.7
HPLM + 10% dialyzed FBS, 0.00234 µM | 93.3 | 102 | 91.5
HPLM + 10% dialyzed FBS, 0.00702 µM | 105 | 98.9 | 93.2
HPLM + 10% dialyzed FBS, 0.0211 µM | 102 | 104 | 93.3
HPLM + 10% dialyzed FBS, 0.0632 µM | 104 | 107 | 86.4
HPLM + 10% dialyzed FBS, 0.19 µM | 112 | 104 | 104
HPLM + 10% dialyzed FBS, 0.569 µM | 101 | 102 | 103
HPLM + 10% dialyzed FBS, 1.71 µM | 108 | 105 | 109
HPLM + 10% dialyzed FBS, 5.12 µM | 87 | 97.7 | 114
HPLM + 10% dialyzed FBS, 15.4 µM | 83.3 | 109 | 104
HPLM + 10% dialyzed FBS, 46.1 µM | 116 | 109 | 116
RPMI 5 mM glucose + 10% FBS, 0.000781 µM | 86.3 | 89.5 | 81.1
RPMI 5 mM glucose + 10% FBS, 0.00234 µM | 86.4 | 101 | 92.2
RPMI 5 mM glucose + 10% FBS, 0.00702 µM | 91.1 | 95.5 | 95
RPMI 5 mM glucose + 10% FBS, 0.0211 µM | 98.4 | 92.9 | 85.5
RPMI 5 mM glucose + 10% FBS, 0.0632 µM | 88.3 | 95.3 | 93
RPMI 5 mM glucose + 10% FBS, 0.19 µM | 100 | 111 | 92.6
RPMI 5 mM glucose + 10% FBS, 0.569 µM | 90.3 | 107 | 94.8
RPMI 5 mM glucose + 10% FBS, 1.71 µM | 89.3 | 101 | 100
RPMI 5 mM glucose + 10% FBS, 5.12 µM | 95.4 | 87.3 | 94.7
RPMI 5 mM glucose + 10% FBS, 15.4 µM | 91.4 | 113 | 92.6
RPMI 5 mM glucose + 10% FBS, 46.1 µM | 95.3 | 115 | 94.7
RPMI 5 mM glucose + 10% dialyzed FBS, 0.000781 µM | 82.2 | 90.7 | 94.9
RPMI 5 mM glucose + 10% dialyzed FBS, 0.00234 µM | 97.7 | 86 | 87.6
RPMI 5 mM glucose + 10% dialyzed FBS, 0.00702 µM | 97.6 | 90.7 | 101
RPMI 5 mM glucose + 10% dialyzed FBS, 0.0211 µM | 92.3 | 92.5 | 86.2
RPMI 5 mM glucose + 10% dialyzed FBS, 0.0632 µM | 99.5 | 103 | 93.7
RPMI 5 mM glucose + 10% dialyzed FBS, 0.19 µM | 93 | 104 | 94.8
RPMI 5 mM glucose + 10% dialyzed FBS, 0.569 µM | 96.3 | 98.5 | 96.1
RPMI 5 mM glucose + 10% dialyzed FBS, 1.71 µM | 94.1 | 98.8 | 87.7
RPMI 5 mM glucose + 10% dialyzed FBS, 5.12 µM | 99.3 | 94.8 | 94.3
RPMI 5 mM glucose + 10% dialyzed FBS, 15.4 µM | 92.5 | 104 | 96
RPMI 5 mM glucose + 10% dialyzed FBS, 46.1 µM | 104 | 108 | 94.1

AUC of viability dose-response curve
Conditions | NOMO1 [4] | P12-Ichikawa [5] | SEM cells [6]
HPLM + 10% dialyzed FBS | 475 | 458 | 417
RPMI 5 mM glucose + 10% FBS | 439 | 442 | 443
RPMI 5 mM glucose + 10% dialyzed FBS | 457 | 458 | 445
